Reference: patent publication US5496452A, “Substrate regenerating biosensor” (priority 1990, dated 1996)

How the values were obtained:
[1] = molecular target: T1, horseradish peroxidase (HRP) (Armoracia rusticana, UniProt P00433); test: Ferrocenes as mediators for HRP reduction: ring current at rotating ring disc electrode; format: biochemical; conditions: ferrocene derivative 0.5 mM, HRP 2.5 μM, disc potential -1.2V; for Relative Current: relative to hydroxymethyl ferrocene = 100%
T1 construct: purchased Biozyme
T1 sequence (P00433 31-353): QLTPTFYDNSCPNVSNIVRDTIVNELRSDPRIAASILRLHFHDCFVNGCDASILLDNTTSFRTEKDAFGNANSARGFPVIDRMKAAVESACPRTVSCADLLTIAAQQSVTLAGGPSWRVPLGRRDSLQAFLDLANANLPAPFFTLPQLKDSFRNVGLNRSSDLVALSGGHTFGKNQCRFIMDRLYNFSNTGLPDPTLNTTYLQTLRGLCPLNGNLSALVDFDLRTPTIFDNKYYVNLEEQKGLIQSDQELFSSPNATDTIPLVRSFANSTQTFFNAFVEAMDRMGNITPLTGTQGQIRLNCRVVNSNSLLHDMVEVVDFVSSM
Source text: The electrocatalytic activity of HRP as shown in FIGS. 1 and 2 was typically assessed by immersing the rotating ring disc electrode in a buffered solution containing peroxidase and hydroxymethyl ferrocene mediator. The electrode was rotated at a constant speed to control the transport of material to the disc electrode and subsequently out to the ring. A cathodic potential sweep was applied to the glassy carbon disc at 0.1V/S. The platinum ring was held at constant potential of 0V and the current at the ring as a function of the disc potential was measured. Before determination of the peroxidase generated ring current, following electrode immersion, the ring current (background current) was allowed to stabilize (about 5 min). […] The catalytic current was defined as the net reductive current occurring at a disc potential of 0 volts.
The actual profile of the reduction current seen at the ring electrode is a function of the concentrations of the enzyme and substrates, as well as the rotation rate of the electrode, the sweep rate at the disc and the potential of the ring. The magnitude of this current also depends on the fraction of enzymatically generated ferricinium (oxidized ferrocene) which actually reaches the ring.
(§1) Several ferrocenes shown in Table 1 were tested for their ability to act as mediators for HRP reduction.

[2] = Redox potential (Ep1/2) of ferrocene derivatives; format: physicochemical; conditions: ferrocene derivative 0.5 mM; potentials quoted vs SCE
Source text: A four electrode analogue potentiostat (not shown) which is optionally computer controlled is used to control the potentials at the working electrodes (2) and (3). The disc electrode (2) is connected to a triangular wave generator (not shown) for potential sweeps and the ring electrode (3) is connected to a constant DC voltage source. The electrode rotation is controlled by a Ursar Scientific rotator. All potentials are quoted with respect to a saturated calomel electrode (SCE) with a 1 cm^2 platinum gauze serving as the counter electrode.
as §1

SMILES | Current (ring current) [1] | Relative Current [1] | Ep1/2 (redox potential) [2]
O=C([O-])[c-]1cccc1.O=C([O-])[c-]1cccc1.[Fe+2] [1,1' Dicarboxylate Ferrocene] | 0.10 mA | 3% | 420 mv
CN(C)Cc1ccc[cH-]1.[Fe+2].c1cc[cH-]c1 [Dimethylaminomethyl Ferrocene] | 0.22 mA | 6% | 490 mv
OC[c-]1cccc1.[Fe+2].c1cc[cH-]c1 [Hydroxymethyl Ferrocene] | 3.8 mA | 100% | 210 mv
O=C([O-])[c-]1cccc1.[Fe+2].c1cc[cH-]c1 [Monocarboxylate Ferrocene] | 0.64 mA | 17% | 295 mv
